Experimental data taken from ChEMBL document CHEMBL4732071, “Discovery of selective HDAC/BRD4 dual inhibitors as epigenetic probes” (Eur J Med Chem, 2021).
Calls of active or inactive are those of the source. The rule behind the calls is not given here.

What was measured:
[1] = biological target: T1, Protein deacetylase HDAC6 (Homo sapiens) (UniProt Q9UBN7); assay: Inhibition of HDAC6 in human MV4-11 cells assessed as increase in acetylated alpha-tubulin at 10 to 1000 nM incubated for 24 hrs by Western blot analysis; assay type: cell-based; details: dose 10-1000 nM
T1 sequence (whole entry): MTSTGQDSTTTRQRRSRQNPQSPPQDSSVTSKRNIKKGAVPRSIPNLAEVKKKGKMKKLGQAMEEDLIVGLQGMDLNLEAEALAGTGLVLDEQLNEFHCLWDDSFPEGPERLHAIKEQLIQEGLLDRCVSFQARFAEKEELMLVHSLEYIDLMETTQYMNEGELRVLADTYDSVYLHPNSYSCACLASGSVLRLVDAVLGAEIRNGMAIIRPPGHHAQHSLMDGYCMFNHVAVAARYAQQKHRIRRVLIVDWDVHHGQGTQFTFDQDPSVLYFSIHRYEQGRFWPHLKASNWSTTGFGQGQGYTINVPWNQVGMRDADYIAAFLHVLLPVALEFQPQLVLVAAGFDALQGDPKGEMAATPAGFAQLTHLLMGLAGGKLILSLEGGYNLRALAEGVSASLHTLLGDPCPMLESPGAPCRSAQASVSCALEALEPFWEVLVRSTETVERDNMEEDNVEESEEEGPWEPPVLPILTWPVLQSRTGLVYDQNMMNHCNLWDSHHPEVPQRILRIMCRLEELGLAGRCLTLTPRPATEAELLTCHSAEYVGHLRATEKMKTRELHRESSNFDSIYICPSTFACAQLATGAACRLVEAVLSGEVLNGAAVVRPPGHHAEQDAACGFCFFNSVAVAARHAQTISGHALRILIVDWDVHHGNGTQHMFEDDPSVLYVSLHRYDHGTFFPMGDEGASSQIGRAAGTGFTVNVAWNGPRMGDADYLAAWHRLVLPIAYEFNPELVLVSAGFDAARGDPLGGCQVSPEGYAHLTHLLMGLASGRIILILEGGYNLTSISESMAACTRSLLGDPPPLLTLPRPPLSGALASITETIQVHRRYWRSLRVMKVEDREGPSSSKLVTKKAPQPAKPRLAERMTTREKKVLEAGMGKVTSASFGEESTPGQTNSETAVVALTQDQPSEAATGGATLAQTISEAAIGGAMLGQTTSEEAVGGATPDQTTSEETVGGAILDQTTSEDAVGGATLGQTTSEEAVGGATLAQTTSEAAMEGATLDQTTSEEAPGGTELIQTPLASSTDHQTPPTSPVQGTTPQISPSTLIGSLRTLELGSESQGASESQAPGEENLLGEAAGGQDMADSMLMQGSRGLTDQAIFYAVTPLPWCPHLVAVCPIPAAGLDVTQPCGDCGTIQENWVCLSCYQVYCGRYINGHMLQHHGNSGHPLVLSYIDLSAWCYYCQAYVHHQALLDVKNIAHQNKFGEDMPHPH

[2] = biological target: T2, Histone deacetylase 1 (Homo sapiens, UniProt Q13547); assay: Inhibition of HDAC1 (unknown origin) by fluorescence based assay
T2 sequence (Q13547 whole entry): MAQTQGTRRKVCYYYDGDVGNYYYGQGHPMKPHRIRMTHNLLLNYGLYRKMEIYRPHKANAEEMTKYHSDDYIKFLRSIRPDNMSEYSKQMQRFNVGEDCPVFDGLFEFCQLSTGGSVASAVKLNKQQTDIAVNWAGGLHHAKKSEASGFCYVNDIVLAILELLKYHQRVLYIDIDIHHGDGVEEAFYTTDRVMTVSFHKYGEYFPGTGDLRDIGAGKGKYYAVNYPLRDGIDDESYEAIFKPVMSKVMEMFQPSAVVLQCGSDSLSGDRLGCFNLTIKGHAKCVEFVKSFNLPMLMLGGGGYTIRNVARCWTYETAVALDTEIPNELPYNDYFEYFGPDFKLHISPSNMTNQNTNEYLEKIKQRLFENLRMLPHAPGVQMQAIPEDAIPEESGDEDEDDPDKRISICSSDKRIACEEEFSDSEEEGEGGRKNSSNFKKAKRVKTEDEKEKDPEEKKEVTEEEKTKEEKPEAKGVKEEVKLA

[3] = biological target: T3, Bromodomain-containing protein 4 (Homo sapiens, UniProt O60885); assay: Inhibition of BRD4 in human MV4-11 cells assessed as reduction in c-Myc expression at 10 to 1000 nM measured after 24 hrs by Western blot analysis; assay type: cell-based; details: dose 10-1000 nM
[4] = biological target: T3, Bromodomain-containing protein 4; assay: Inhibition of His-tagged BRD4 bromodomain 1 (unknown origin) using [Lys (5,8,12,16) Ac] H4(1-21) as substrate by fluorescence based assay
[5] = biological target: T2, Histone deacetylase 1; assay: Inhibition of HDAC1 in human MV4-11 cells assessed as increase in acetylated H3 at 10 to 1000 nM incubated for 24 hrs by Western blot analysis; assay type: cell-based; details: dose 10-1000 nM
[6] = biological target: T3, Bromodomain-containing protein 4; assay: Inhibition of His-tagged BRD4 bromodomain 2 (unknown origin) using [Lys (5,8,12,16) Ac] H4(1-21) as substrate by fluorescence based assay
[7] = tested on: MV4-11; assay: Antiproliferative activity against human MV4-11 cells assessed as cell viability after 72 hrs by CCK8 assay; assay type: functional, cell-based; details: MV4-11, 72 h
[8] = biological target: T4, Protein deacetylase HDAC6 (Homo sapiens, UniProt Q9UBN7); assay: Inhibition of HDAC6 (unknown origin) by fluorescence based assay
T4 sequence (Q9UBN7 whole entry): T1 sequence (whole entry)

[9] = biological target: T2, Histone deacetylase 1; assay: Inhibition of HDAC1 in human MV4-11 cells assessed as increase in acetylated H3 at 1 uM incubated for 24 hrs by Western blot analysis; assay type: cell-based
[10] = biological target: T1, Protein deacetylase HDAC6 (Homo sapiens); assay: Inhibition of HDAC6 in human MV4-11 cells assessed as increase in acetylated alpha-tubulin at 1 uM incubated for 24 hrs by Western blot analysis; assay type: cell-based
[11] = biological target: T3, Bromodomain-containing protein 4; assay: Inhibition of BRD4 in human MV4-11 cells assessed as upregulation of p21 expression at 10 to 1000 nM measured after 24 hrs by Western blot analysis; assay type: cell-based; details: dose 10-1000 nM
[12] = biological target: T5, Histone deacetylase 8 (Homo sapiens, UniProt Q9BY41); assay: Inhibition of HDAC8 (unknown origin) by fluorescence based assay
T5 sequence (Q9BY41 whole entry): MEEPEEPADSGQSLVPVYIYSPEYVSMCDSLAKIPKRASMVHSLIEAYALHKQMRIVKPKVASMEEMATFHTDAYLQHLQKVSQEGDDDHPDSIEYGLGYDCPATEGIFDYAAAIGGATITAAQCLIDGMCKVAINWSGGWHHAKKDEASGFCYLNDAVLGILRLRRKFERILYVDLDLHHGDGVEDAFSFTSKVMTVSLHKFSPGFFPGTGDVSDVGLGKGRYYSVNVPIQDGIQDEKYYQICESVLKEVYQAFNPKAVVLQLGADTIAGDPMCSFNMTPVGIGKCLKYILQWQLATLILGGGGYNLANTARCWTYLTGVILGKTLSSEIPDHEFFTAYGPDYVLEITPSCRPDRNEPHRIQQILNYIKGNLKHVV

[13] = biological target: Histone deacetylase 3 (Homo sapiens, UniProt O15379); assay: Inhibition of HDAC3 (unknown origin) by fluorescence based assay
Chain of Histone deacetylase 3 (O15379 whole entry): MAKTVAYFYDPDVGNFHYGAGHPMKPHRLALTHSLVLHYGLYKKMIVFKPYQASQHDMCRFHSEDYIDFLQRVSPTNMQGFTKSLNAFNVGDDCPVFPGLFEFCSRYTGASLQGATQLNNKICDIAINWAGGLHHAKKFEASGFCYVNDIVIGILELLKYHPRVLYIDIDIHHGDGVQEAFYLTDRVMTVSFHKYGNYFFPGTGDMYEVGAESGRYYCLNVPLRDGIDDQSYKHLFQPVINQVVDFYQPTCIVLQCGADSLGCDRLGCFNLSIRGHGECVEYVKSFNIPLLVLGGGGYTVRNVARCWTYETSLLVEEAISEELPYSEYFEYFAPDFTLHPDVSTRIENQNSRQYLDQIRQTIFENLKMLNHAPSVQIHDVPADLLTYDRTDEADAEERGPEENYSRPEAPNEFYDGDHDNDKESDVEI

[14] = tested on: MV4-11; assay: Induction of apoptosis in human MV4-11 cells at 1000 nM after 24 hrs by flow cytometry relative to control; assay type: functional
[15] = biological target: Histone deacetylase 4 (Homo sapiens, UniProt P56524); assay: Inhibition of HDAC4 (unknown origin) by fluorescence based assay
Chain of Histone deacetylase 4 (P56524 whole entry): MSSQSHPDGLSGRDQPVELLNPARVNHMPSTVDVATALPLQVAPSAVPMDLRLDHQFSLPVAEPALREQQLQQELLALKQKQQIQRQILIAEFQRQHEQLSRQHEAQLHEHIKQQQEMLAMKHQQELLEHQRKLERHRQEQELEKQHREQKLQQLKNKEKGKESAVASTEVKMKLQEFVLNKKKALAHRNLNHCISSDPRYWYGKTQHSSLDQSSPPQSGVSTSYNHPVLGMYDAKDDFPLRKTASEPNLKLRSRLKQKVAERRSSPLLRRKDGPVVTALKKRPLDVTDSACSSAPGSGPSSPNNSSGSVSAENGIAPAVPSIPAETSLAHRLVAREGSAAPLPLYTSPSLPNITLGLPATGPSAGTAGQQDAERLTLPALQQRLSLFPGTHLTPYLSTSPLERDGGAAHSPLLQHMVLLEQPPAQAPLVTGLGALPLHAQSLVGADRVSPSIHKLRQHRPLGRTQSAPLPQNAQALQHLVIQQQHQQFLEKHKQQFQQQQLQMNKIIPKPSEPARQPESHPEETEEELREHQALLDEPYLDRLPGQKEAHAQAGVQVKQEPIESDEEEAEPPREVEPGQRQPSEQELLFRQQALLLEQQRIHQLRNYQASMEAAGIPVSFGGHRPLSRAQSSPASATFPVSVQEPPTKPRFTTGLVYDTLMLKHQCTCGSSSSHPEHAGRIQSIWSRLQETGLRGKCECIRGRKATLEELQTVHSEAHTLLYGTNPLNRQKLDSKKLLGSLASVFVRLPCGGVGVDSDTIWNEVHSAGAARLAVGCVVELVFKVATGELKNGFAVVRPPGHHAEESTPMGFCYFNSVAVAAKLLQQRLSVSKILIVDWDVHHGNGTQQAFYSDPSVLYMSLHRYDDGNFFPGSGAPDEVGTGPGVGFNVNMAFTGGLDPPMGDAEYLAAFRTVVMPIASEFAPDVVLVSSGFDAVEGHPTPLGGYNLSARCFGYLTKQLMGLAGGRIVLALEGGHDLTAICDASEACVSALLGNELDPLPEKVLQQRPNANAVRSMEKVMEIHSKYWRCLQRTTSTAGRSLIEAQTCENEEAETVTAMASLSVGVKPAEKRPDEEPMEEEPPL

[16] = biological target: T3, Bromodomain-containing protein 4; assay: Inhibition of BRD4 in human MV4-11 cells assessed as reduction in c-Myc expression measured after 24 hrs by Western blot analysis; assay type: cell-based; details: dose 10-1000 nM
[17] = biological target: T6, Histone deacetylase 11 (Homo sapiens, UniProt Q96DB2); assay: Inhibition of HDAC11 (unknown origin) by fluorescence based assay
T6 sequence (Q96DB2 whole entry): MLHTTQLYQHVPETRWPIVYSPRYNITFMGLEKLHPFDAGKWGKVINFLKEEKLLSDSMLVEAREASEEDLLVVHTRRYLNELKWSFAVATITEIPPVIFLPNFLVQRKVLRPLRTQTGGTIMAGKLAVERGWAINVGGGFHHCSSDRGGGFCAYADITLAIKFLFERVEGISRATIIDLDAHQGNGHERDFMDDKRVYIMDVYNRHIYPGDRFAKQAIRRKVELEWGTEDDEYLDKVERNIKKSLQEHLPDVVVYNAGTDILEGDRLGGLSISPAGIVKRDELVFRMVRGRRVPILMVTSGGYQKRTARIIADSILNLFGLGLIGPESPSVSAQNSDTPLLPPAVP

[18] = tested on: MV4-11; assay: Induction of cell cycle arrest in human MV4-11 cells assessed as accumulation at G0/G1 phase at 1000 nM after 24 hrs by flow cytometry; assay type: functional, cell-based

| Acetylated alpha-tubulin increase (active/not active) [1] | IC50 [2] [nM] | inhibition [3] | IC50 [4] [nM] | inhibition [5] | IC50 [6] [nM] | IC50 [7] [nM] | IC50 [8] [nM] | inhibition [9] | inhibition [10] | inhibition [11] | IC50 [12] [nM] | IC50 [13] [nM] | IC50 [15] [nM] | inhibition [16] | IC50 [17] [nM] | Compound | Activity [14] [%] | Activity [18] |
| --- | --- | --- | --- | --- | --- | --- | --- | --- | --- | --- | --- | --- | --- | --- | --- | --- | --- | --- |
| Active | 168 | Active | 42.1 | inactive | 11.3 | 570 | 15.3 | – | – | – | – | – | – | – | – | Cn1cc(-c2ccccc2Oc2ccccc2)c2cc(C(=O)NCc3ccc(C(=O)NO)cc3)[nH]c2c1=O | – | – |
| inactive | 126 | Active | 31.7 | Active | 18.7 | 80 | > 500 | – | – | Active | – | – | – | – | – | Cn1cc(-c2ccccc2Oc2ccccc2)c2cc(C(=O)NCc3ccc(C(=O)Nc4ccccc4N)cc3)[nH]c2c1=O | – | – |
| inactive | 142 | Active | 13.1 | – | 4.8 | 180 | 4 | – | – | – | – | – | – | – | – | Cn1cc(-c2ccccc2Oc2ccccc2)c2cc(C(=O)NCCCCC(=O)NO)[nH]c2c1=O | – | – |
| Active | 19.4 | – | 29.5 | Active | 6 | 160 | 5.4 | – | – | – | 99.6 | 36.4 | > 10000 | Active | > 10000 | CC(C)Oc1ccc(C(C)(C)O)cc1-c1cn(C)c(=O)c2[nH]c(C(=O)NCCCCCCC(=O)NO)cc12 | 53.73 | – |

Continued, compound first:

| Compound | Acetylated alpha-tubulin increase (active/not active) [1] | IC50 [2] [nM] | inhibition [3] | IC50 [4] [nM] | inhibition [5] | IC50 [6] [nM] | IC50 [7] [nM] | IC50 [8] [nM] | inhibition [9] | inhibition [10] | inhibition [11] | IC50 [12] [nM] | IC50 [13] [nM] | IC50 [15] [nM] | inhibition [16] | IC50 [17] [nM] | Activity [14] [%] | Activity [18] |
| --- | --- | --- | --- | --- | --- | --- | --- | --- | --- | --- | --- | --- | --- | --- | --- | --- | --- | --- |
| Cn1cc(-c2ccccc2Oc2ccccc2)c2cc(C(=O)NCCCCCCC(=O)NO)[nH]c2c1=O | – | 29.5 | Active | 38.6 | – | 5.3 | 180 | 4.7 | Active | Active | – | – | – | – | – | – | – | – |
| CC(C)Oc1ccc(C(C)(C)O)cc1-c1cn(C)c(=O)c2[nH]c(C(=O)NCc3ccc(C(=O)Nc4ccccc4N)cc3)cc12 | – | 59.7 | – | 5.6 | Active | 2.1 | 40 | – | – | – | – | > 10000 | 1440 | > 10000 | Active | > 10000 | 57.31 | – |
| Cc1cc(F)cc(C)c1Oc1ccc(C(C)(C)O)cc1-c1cn(C)c(=O)c2[nH]c(C(=O)NCCCCCCC(=O)NO)cc12 | Active | 228 | – | 369 | – | 1.2 | 300 | 17.2 | – | – | – | 583 | 161 | > 10000 | Active | 2750 | 19.29 | Active |
